Measurements reported in the supplement of paper PMC10883282.
± gives the standard deviation of the averaged measurements.

System: SK-LMS-1
Assay: relative viability vs DMSO control (72 h) (fraction); higher = more viable cells
How it was run: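 After seeding at densities set for 80–90% confluence in 384-well plates, sarcoma cell lines waited 24 h before 2.5 µl of serially diluted compound was added. Source plates held 10 mM down to 0.0002 mM. Plates were incubated 72 h at 37 °C with 5% CO2, with 0.1% DMSO vehicle and a 5 µM positive control, and relative viability was taken from ATPLite as percent growth averaged over up to triplicate wells, with 1 set as full and 0 as none.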

Row | SMILES | relative viability (0.00017 µM) | relative viability (0.00051 µM) | relative viability (0.00152 µM) | relative viability (0.00457 µM) | relative viability (0.01372 µM) | relative viability (0.04115 µM) | relative viability (0.1235 µM) | relative viability (0.3704 µM) | relative viability (1.111 µM) | relative viability (3.333 µM) | relative viability (10 µM)
1 | COc1cc2/c(=N/c3ccc(Br)cc3F)nc[nH]c2cc1OCC1CCN(C)CC1 [Vandetanib] | 0.994 ± 0.015 | 1.01 ± 0.029 | 1.02 ± 0.049 | 1.08 ± 0.015 | 1.02 ± 0.09 | 1.05 ± 0.039 | 1.01 ± 0.015 | 1.03 ± 0.074 | 0.939 ± 0.011 | 0.484 ± 0.0052 | 0.103 ± 0.014
2 | CCc1cc2c(cc1N1CCC(N3CCOCC3)CC1)C(C)(C)c1[nH]c3cc(C#N)ccc3c1C2=O [Alectinib] | 1.06 ± 0.056 | 1.1 ± 0.043 | 1.08 ± 0.041 | 1.1 ± 0.027 | 1.12 ± 0.018 | 1.08 ± 0.06 | 1.119 ± 0.0081 | 1.12 ± 0.0046 | 1.1 ± 0.019 | 1.11 ± 0.021 | 1.08 ± 0.016
3 | Cc1nc(-c2cn3c(n2)-c2ccc(-c4cnn(C(C)(C)C(N)=O)c4)cc2OCC3)n(C(C)C)n1 [Taselisib] | 0.978 ± 0.027 | 1.035 ± 0.0056 | 0.993 ± 0.043 | 0.9916 ± 0.0093 | 0.949 ± 0.021 | 0.833 ± 0.017 | 0.739 ± 0.018 | 0.676 ± 0.011 | 0.6 ± 0.023 | 0.454 ± 0.012 | 0.315 ± 0.016
4 | O=C(Cc1ccc(-c2ccc(OCCN3CCOCC3)cc2)cn1)NCc1ccccc1 [KX2-391] | 1.03 ± 0.047 | 1.02 ± 0.02 | 1.05 ± 0.019 | 1 ± 0.038 | 0.99 ± 0.038 | 0.704 ± 0.034 | 0.537 ± 0.023 | 0.361 ± 0.0063 | 0.338 ± 0.021 | 0.344 ± 0.018 | 0.333 ± 0.0098
